The results in this text go back to ChEMBL document CHEMBL1201862, “PubChem BioAssay data set” (2004).

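Growth conditions: 96-well plates. Treatment: test compound, 48 hours, 5 concentrations. Analysis: linear interpolation between bracketing concentrations; unreached endpoints set to highest concentration. At the GI50, growth is halved.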 The source made the active and inactive calls. Cut-off read from the data, not from the text of the source: active = GI50 up to about 1.1 µM and inactive = higher.

Some test systems named below: DLD-1; DMS-114; KM-20L2; LXFL 529; M19-MEL; SNB-78; XF498; HOP-18.
Experiment in all cases: NCI-60 cell line screen, 48 h

`Cn1cc/c(=N\N=c2/ccn(C)c3ccccc23)c2ccccc21`: the GI50 is 14.7 µM (inactive) in the test with DLD-1; 14.4 µM (inactive) in the test with DMS-114; 13.1 µM (inactive) in the test with KM-20L2; 14.1 µM (inactive) with LXFL 529; 18.7 µM (inactive) in the test with M19-MEL; 16.4 µM (inactive) in the test with SNB-78. Moreover, the GI50 in the test on XF498 is 14.1 µM (inactive).
Regarding `CN(C)CCSc1cccc(-c2cc(-c3cccc(SCCN(C)C)c3)nc(SCCN(C)C)n2)c1`, the GI50 with DLD-1 is 12.9 µM (inactive); in the test with HOP-18 it was < 0.01 µM (active); in the test on KM-20L2, 1.71 µM (inactive); with LXFL 529, 2.02 µM (inactive); with SNB-78, 2.42 µM (inactive).
In the case of `CC(=O)N1[C@H](C(=O)O)CS[C@H]1c1ccncc1`, the GI50 in the test on DLD-1, in the test with DMS-114, in the test with HOP-18, in the test with KM-20L2, in the test with LXFL 529 and with M19-MEL was > 100 µM (inactive) in each case. For the same compound, in the test on SNB-78, the GI50 was > 100 µM (inactive).
For the compound `Cc1ccc(S(=O)(=O)OCOS(=O)(=O)c2ccc(C)cc2)cc1`, the GI50 with DLD-1, with DMS-114, with HOP-18, in the test with KM-20L2, with LXFL 529 and in the test on M19-MEL was > 100 µM (inactive) each time. Further, the GI50 with SNB-78 was > 10 µM (inactive).
Take `CCOC(=O)N1CCc2cc(OC)c(OC)cc2/C1=C/c1ccc(OC)c(OC)c1`: the GI50 in the test on DLD-1 is 48.6 µM (inactive); with DMS-114, 40 µM (inactive); in the test on HOP-18 it was > 100 µM (inactive); in the test with KM-20L2, 38.3 µM (inactive); in the test on LXFL 529 it was 34.6 µM (inactive); with M19-MEL, 45.9 µM (inactive). The results for the GI50 in the test on SNB-78 and in the test on XF498 were 38 µM (inactive) and 30 µM (inactive), respectively.
For the compound `O=P1(NCCCl)OCCC(OO)N1CCCl` (stereo unspecified), the GI50 is 21.2 µM (inactive) with DLD-1; 31.6 µM (inactive) in the test on DMS-114; 39.9 µM (inactive) in the test on HOP-18; > 100 µM (inactive) in the test on KM-20L2; 34.8 µM (inactive) in the test with M19-MEL; 34.2 µM (inactive) with SNB-78.
`CCOC(=O)Cc1ccc2c(c1O)C(=O)c1c(ccc(CC(=O)OCC)c1O)C2=O`: the GI50 in the test on DLD-1 is > 100 µM (inactive); with DMS-114, > 100 µM (inactive); with HOP-18, 28.4 µM (inactive); in the test on KM-20L2, > 100 µM (inactive); in the test with LXFL 529 it was > 100 µM (inactive); with M19-MEL, > 100 µM (inactive). Further, the GI50 with SNB-78 and with XF498 was > 100 µM (inactive) throughout.
On to `Cc1[nH]c2ccccc2c1C1CC(=O)NC1=O` (stereo unspecified), for which the GI50 in the test with DLD-1, in the test on DMS-114, in the test on KM-20L2, in the test on M19-MEL and in the test on SNB-78 was > 100 µM (inactive) throughout.
On to `O=C(Nc1cc([N+](=O)[O-])cc([N+](=O)[O-])c1)OC1C2CCC1C1OC1C2` (stereo unspecified), for which the GI50 in the test with DLD-1 was > 50 µM (inactive); in the test on DMS-114, 30.5 µM (inactive); with KM-20L2, > 50 µM (inactive); in the test with M19-MEL, > 50 µM (inactive); with SNB-78 it was > 50 µM (inactive).
For `CNC=O`, the GI50 is > 10000 µM (inactive) in the test with DLD-1; > 5160 µM (inactive) in the test on DMS-114; > 10000 µM (inactive) in the test on HOP-18; > 10000 µM (inactive) with KM-20L2; > 10000 µM (inactive) with M19-MEL; > 7830 µM (inactive) in the test with SNB-78. In the test on XF498, the GI50 was > 9550 µM (inactive).
As to `N[C@H](C(=O)O)[C@@H]1CC(Cl)=NO1` [ACIVICIN], the GI50 in the test with DLD-1 was 1.23 µM (inactive); in the test on DMS-114, 5.53 µM (inactive); in the test with HOP-18, 37.9 µM (inactive); with KM-20L2, 1.36 µM (inactive); in the test on SNB-78, 4.25 µM (inactive); in the test with XF498, 23.8 µM (inactive).
